{"source": "patent US8232315B2", "about": "“Methods for treating drug addiction and improving addiction-related behavior” (SK Biopharmaceuticals Co., Ltd., priority 2009, dated 2012)", "test_system": "monkeys trained to discriminate cocaine (0.40 mg/kg) from saline", "experiment": "Cocaine drug discrimination (substitution protocol) in rhesus monkeys", "type": "in vivo, rhesus monkeys (Macaca mulatta)", "details": "0.40 mg/kg cocaine i.m.; training days preceding test days", "description": "Subjects: The subjects were four male rhesus monkeys (Macaca mulatta) each weighing 7.0-8.0 kg. Each monkey was maintained on a diet of 7-12 monkey biscuits (Purina Monkey Chow Jumbo #5037) and one piece of fresh fruit per day. During the week, all food was delivered after the experimental session, whereas on weekends, food was delivered between 9 a.m. and noon. Water was freely available at all times. The room in which the monkeys were housed was maintained on a 12-hr light/dark cycle, with lights on from 7 a.m. to 7 p.m.\nApparatus: Each monkey was housed individually in a well-ventilated, stainless steel chamber (56×71×69 cm). The home cages of all monkeys were modified to include an operant panel (28×28 cm) mounted on the front wall. Three square translucent response keys (6.4×6.4 cm) were arranged 2.54 cm apart in a horizontal row 3.2 cm from the top of the operant panel. Each key could be transilluminated by red or green stimulus lights (Superbright LED'S). In addition, the operant panel supported an externally mounted pellet dispenser (Gerbrands, Model G53 10, Arlington, Mass.) that delivered 1 gm fruit-flavored food pellets (Precision Primate Pellets Formula L/I Banana Flavor, P. J. Noyes Co., Lancaster, N.H.) to a food receptacle mounted on the cage beneath the operant response panel. Operation of the operant panels and data collection were accomplished with IBM-compatible computers and interface systems (MedAssociates; St. Albans, Vt.) located in a separate room.\nDiscrimination Training: Discrimination training was conducted 5 days per week during daily sessions composed of multiple cycles. Each cycle consisted of a 15-min time-out period followed by a 5-min response period. During the time-out, all stimulus lights were off, and responding had no scheduled consequences. During the response period, the right and left response keys were transilluminated red or green, and monkeys could earn up to 10 food pellets by responding under a FR 30 schedule of food presentation. For all four monkeys in this study, the left key was illuminated green, and the right key was illuminated red. The center key was not illuminated at any time, and responding on the center key had no scheduled consequences. If all available food pellets were delivered before the end of the 5-min response period, the stimulus lights transilluminating the response keys were turned off, and responding had no scheduled consequences for the remainder of the 5-min period.\nOn training days, monkeys were given an i.m. injection of either saline or 0.40 mg/kg cocaine 5-min after the beginning of each time-out period (i.e., 10 min before the response period). Following the administration of saline, responding on only the green key (the saline-appropriate key) produced food, whereas following administration of 0.40 mg/kg cocaine, only responding on the red key (the drug-appropriate key) produced food. Responses on the inappropriate key reset the FR requirement on the appropriate key. Sessions consisted of 1 to 5 cycles, and if the training dose of cocaine was administered, it was administered only during the last cycle. Thus, training days consisted of 0 to 5 saline cycles followed by 0 to 1 drug cycles.\nDuring each response period, 3 dependent variables were determined using the following equations.\n1) Percent injection-appropriate responding prior to delivery of the first reinforcer.\n2) Percent injection-appropriate responding for the entire response period.\nMonkeys were considered to have acquired cocaine discrimination when the following three criteria were met for 7 of 8 consecutive training sessions: 1) the percent injection-appropriate responding prior to delivery of the first reinforcer was greater than or equal to 80% for all cycles; 2) the percent injection-appropriate responding for the entire cycle was greater than or equal to 90% for all cycles; 3) response rates during saline training cycles were greater than 0.5 responses per second. […]"}
{"molecule": "COC(=O)[C@H]1[C@@H](OC(=O)c2ccccc2)C[C@@H]2CC[C@H]1N2C", "note": "[cocaine, reference compound]", "values": [{"measurement": "Mean response rate during drug training cycles", "value": "2.58 (±0.67) responses/sec"}]}
